In ChEMBL document CHEMBL3885861, “Open TG-GATES”:

Species: Rattus norvegicus
Assay: Open TG-GATES - Regimen: Single
Format: toxicity, organism-based, Sprague-Dawley
Design: regimen Single, gender Male, age 6 weeks
Settings: in vivo, po, route gavage; for APTT / Bas / Eos / Fbg / Hb / Ht / Lym / MCH / MCHC / MCV / Mono / Neu / PT / Plat / RBC / Ret / WBC: tissue Blood; for KIDNEY_L / KIDNEY_R / KIDNEY_TOTAL: tissue Kidney; for LIVER: tissue Liver; for ALP / ALT / AST / BUN / CRE / DBIL / GLC / K / LDH / Na / PL / RALB / TBIL / TC / TG / TP / gamma-GTP: tissue Plasma
[1] = 150 mg/kg, 3 h, dose level Middle
[2] = 150 mg/kg, 6 h, dose level Middle
[3] = 150 mg/kg, 9 h, dose level Middle
[4] = 150 mg/kg, 24 h, dose level Middle
[5] = 450 mg/kg, 3 h, dose level High
[6] = 450 mg/kg, 6 h, dose level High
[7] = 450 mg/kg, 9 h, dose level High
[8] = 450 mg/kg, 24 h, dose level High

## CC(CCc1ccccc1)NCC(O)c1ccc(O)c(C(N)=O)c1 (configuration not stated) [LABETALOL]
[1]
  TERMINAL_BW: 215.7 g
  APTT: 16.5 s
  Bas: 0%
  Eos: 0.8%
  Fbg: 263.6 mg/dL
  Hb: 12.4 g/dL
  Ht: 36.2%
  Lym: 77%
  MCH: 21.9 pg
  MCHC: 34.1%
  MCV: 64.2 fL
  Mono: 3%
  Neu: 18.6%
  PT: 13.3 s
  Plat: 115.1 x10_4/uL
  RBC: 564.6 x10_4/ul
  Ret: 8.3%
  WBC: 77.1 x10_2/uL
  KIDNEY_L: 1 g
  KIDNEY_R: 0.9 g
  KIDNEY_TOTAL: 1.9 g
  LIVER: 9.4 g
  ALP: 1401.4 IU/L
  ALT: 46 IU/L
  AST: 73.6 IU/L
  BUN: 12 mg/dL
  CRE: 0.2 mg/dL
  DBIL: 0.01 mg/dL
  GLC: 207.2 mg/dL
  K: 3.7 meq/L
  LDH: 48.6 IU/L
  Na: 142.2 meq/L
  PL: 125.2 mg/dL
  RALB: 2.5 g/dL
  TBIL: 0.042 mg/dL
  TC: 70 mg/dL
  TG: 49.4 mg/dL
  TP: 5.2 g/dL
  gamma-GTP: 1.4 IU/L
[2]
  TERMINAL_BW: 215.9 g
  APTT: 15.9 s
  Bas: 0%
  Eos: 1%
  Fbg: 269.8 mg/dL
  Hb: 12.5 g/dL
  Ht: 36.5%
  Lym: 74.6%
  MCH: 21.1 pg
  MCHC: 34.3%
  MCV: 61.7 fL
  Mono: 3.6%
  Neu: 20.2%
  PT: 13.1 s
  Plat: 106.3 x10_4/uL
  RBC: 593.6 x10_4/ul
  Ret: 7.9%
  WBC: 81 x10_2/uL
  KIDNEY_L: 0.9 g
  KIDNEY_R: 0.9 g
  KIDNEY_TOTAL: 1.8 g
  LIVER: 8.9 g
  ALP: 1487.8 IU/L
  ALT: 39.4 IU/L
  AST: 71 IU/L
  BUN: 9.4 mg/dL
  CRE: 0.2 mg/dL
  DBIL: 0.01 mg/dL
  GLC: 199.4 mg/dL
  K: 4.2 meq/L
  LDH: 44.8 IU/L
  Na: 142.8 meq/L
  PL: 126 mg/dL
  RALB: 2.4 g/dL
  TBIL: 0.04 mg/dL
  TC: 73.2 mg/dL
  TG: 41.8 mg/dL
  TP: 5.1 g/dL
  gamma-GTP: 1 IU/L
[3]
  TERMINAL_BW: 213.9 g
  APTT: 15.6 s
  Bas: 0%
  Eos: 0.8%
  Fbg: 287.8 mg/dL
  Hb: 12.5 g/dL
  Ht: 37.1%
  Lym: 77.6%
  MCH: 21.8 pg
  MCHC: 33.7%
  MCV: 64.8 fL
  Mono: 1.8%
  Neu: 19.6%
  PT: 13.2 s
  Plat: 106.5 x10_4/uL
  RBC: 572.4 x10_4/ul
  Ret: 8.2%
  WBC: 82.4 x10_2/uL
  KIDNEY_L: 0.9 g
  KIDNEY_R: 0.9 g
  KIDNEY_TOTAL: 1.9 g
  LIVER: 8.7 g
  ALP: 1516.4 IU/L
  ALT: 41.4 IU/L
  AST: 68.4 IU/L
  BUN: 10.2 mg/dL
  CRE: 0.2 mg/dL
  DBIL: 0.01 mg/dL
  GLC: 185.4 mg/dL
  K: 3.9 meq/L
  LDH: 42.4 IU/L
  Na: 144.6 meq/L
  PL: 136.6 mg/dL
  RALB: 2.6 g/dL
  TBIL: 0.036 mg/dL
  TC: 77.8 mg/dL
  TG: 56.6 mg/dL
  TP: 5.5 g/dL
  gamma-GTP: 1.2 IU/L
[4]
  TERMINAL_BW: 223.2 g
  APTT: 14.8 s
  Bas: 0%
  Eos: 1%
  Fbg: 345.2 mg/dL
  Hb: 13.1 g/dL
  Ht: 38.4%
  Lym: 71.6%
  MCH: 21 pg
  MCHC: 34.2%
  MCV: 61.4 fL
  Mono: 3.8%
  Neu: 23%
  PT: 12.7 s
  Plat: 116.5 x10_4/uL
  RBC: 625.6 x10_4/ul
  Ret: 8.2%
  WBC: 77.1 x10_2/uL
  KIDNEY_L: 0.9 g
  KIDNEY_R: 0.9 g
  KIDNEY_TOTAL: 1.8 g
  LIVER: 10.1 g
  ALP: 1738.6 IU/L
  ALT: 45.6 IU/L
  AST: 76 IU/L
  BUN: 16.6 mg/dL
  CRE: 0.2 mg/dL
  DBIL: 0.016 mg/dL
  GLC: 180.6 mg/dL
  K: 4.3 meq/L
  LDH: 72.6 IU/L
  Na: 143.2 meq/L
  PL: 159.6 mg/dL
  RALB: 2.6 g/dL
  TBIL: 0.038 mg/dL
  TC: 92 mg/dL
  TG: 96.4 mg/dL
  TP: 5.7 g/dL
  gamma-GTP: 1.2 IU/L
[5]
  TERMINAL_BW: 212.9 g
  APTT: 17.6 s
  Bas: 0%
  Eos: 1%
  Fbg: 255.2 mg/dL
  Hb: 12.2 g/dL
  Ht: 35.8%
  Lym: 76%
  MCH: 21.5 pg
  MCHC: 34.1%
  MCV: 62.9 fL
  Mono: 3.2%
  Neu: 19.4%
  PT: 13 s
  Plat: 109.9 x10_4/uL
  RBC: 569.4 x10_4/ul
  Ret: 8.1%
  WBC: 70.3 x10_2/uL
  KIDNEY_L: 1 g
  KIDNEY_R: 0.9 g
  KIDNEY_TOTAL: 1.9 g
  LIVER: 9.4 g
  ALP: 1740.2 IU/L
  ALT: 47 IU/L
  AST: 73 IU/L
  BUN: 13.2 mg/dL
  CRE: 0.2 mg/dL
  DBIL: 0.01 mg/dL
  GLC: 198.4 mg/dL
  K: 3.9 meq/L
  LDH: 56.8 IU/L
  Na: 142.4 meq/L
  PL: 124 mg/dL
  RALB: 2.4 g/dL
  TBIL: 0.04 mg/dL
  TC: 68.4 mg/dL
  TG: 39.2 mg/dL
  TP: 5.2 g/dL
  gamma-GTP: 1.4 IU/L
[6]
  TERMINAL_BW: 216.2 g
  APTT: 16.6 s
  Bas: 0%
  Eos: 1%
  Fbg: 288.6 mg/dL
  Hb: 12.2 g/dL
  Ht: 36.2%
  Lym: 75.4%
  MCH: 21.9 pg
  MCHC: 33.8%
  MCV: 64.8 fL
  Mono: 2.6%
  Neu: 20.4%
  PT: 12.6 s
  Plat: 112.1 x10_4/uL
  RBC: 561 x10_4/ul
  Ret: 8.2%
  WBC: 89.2 x10_2/uL
  KIDNEY_L: 1 g
  KIDNEY_R: 0.9 g
  KIDNEY_TOTAL: 1.9 g
  LIVER: 9 g
  ALP: 1401.4 IU/L
  ALT: 42.6 IU/L
  AST: 69.8 IU/L
  BUN: 10 mg/dL
  CRE: 0.2 mg/dL
  DBIL: 0.006 mg/dL
  GLC: 188.8 mg/dL
  K: 4.1 meq/L
  LDH: 53.4 IU/L
  Na: 143.4 meq/L
  PL: 131 mg/dL
  RALB: 2.5 g/dL
  TBIL: 0.038 mg/dL
  TC: 78 mg/dL
  TG: 23.2 mg/dL
  TP: 5.2 g/dL
  gamma-GTP: 1 IU/L
[7]
  TERMINAL_BW: 218.2 g
  APTT: 16 s
  Bas: 0%
  Eos: 0.8%
  Fbg: 285 mg/dL
  Hb: 12.8 g/dL
  Ht: 37.5%
  Lym: 75.4%
  MCH: 22.6 pg
  MCHC: 34.1%
  MCV: 66.1 fL
  Mono: 2%
  Neu: 21.4%
  PT: 12.9 s
  Plat: 98.6 x10_4/uL
  RBC: 567 x10_4/ul
  Ret: 8%
  WBC: 90.3 x10_2/uL
  KIDNEY_L: 0.9 g
  KIDNEY_R: 0.9 g
  KIDNEY_TOTAL: 1.8 g
  LIVER: 8.5 g
  ALP: 1515.4 IU/L
  ALT: 49.6 IU/L
  AST: 71.2 IU/L
  BUN: 9 mg/dL
  CRE: 0.2 mg/dL
  DBIL: 0.01 mg/dL
  GLC: 179 mg/dL
  K: 4.2 meq/L
  LDH: 41.2 IU/L
  Na: 144.2 meq/L
  PL: 135 mg/dL
  RALB: 2.5 g/dL
  TBIL: 0.044 mg/dL
  TC: 78 mg/dL
  TG: 30.6 mg/dL
  TP: 5.2 g/dL
  gamma-GTP: 1 IU/L
[8]
  TERMINAL_BW: 219.8 g
  APTT: 15.5 s
  Bas: 0%
  Eos: 1%
  Fbg: 290.8 mg/dL
  Hb: 13 g/dL
  Ht: 38.1%
  Lym: 74%
  MCH: 21.6 pg
  MCHC: 34.2%
  MCV: 62.9 fL
  Mono: 2.6%
  Neu: 22%
  PT: 12.6 s
  Plat: 115.1 x10_4/uL
  RBC: 605.2 x10_4/ul
  Ret: 7.5%
  WBC: 68.4 x10_2/uL
  KIDNEY_L: 1 g
  KIDNEY_R: 0.9 g
  KIDNEY_TOTAL: 1.9 g
  LIVER: 9.6 g
  ALP: 1840.6 IU/L
  ALT: 44 IU/L
  AST: 74 IU/L
  BUN: 17.4 mg/dL
  CRE: 0.2 mg/dL
  DBIL: 0.012 mg/dL
  GLC: 167.8 mg/dL
  K: 4.7 meq/L
  LDH: 55.2 IU/L
  Na: 142.2 meq/L
  PL: 144.8 mg/dL
  RALB: 2.6 g/dL
  TBIL: 0.03 mg/dL
  TC: 88 mg/dL
  TG: 57.8 mg/dL
  TP: 5.6 g/dL
  gamma-GTP: 1.2 IU/L
